Some test systems named below: RXF 393; NCI-H226; DMS-273; Malme-3M; IGROV-1; SK-MEL-5; COLO 205; SNB-75; RPMI-8226; SK-MEL-2; LOX IMVI; A549; SK-MEL-28; SF-295; A498; MDA-MB-231; T47D; MDA-N; PC-3; BT-549.
What all share (assay): NCI-60 cell line screen, 48 h

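Protocol summary: plate cells (96-well), add compound at 5 concentrations, incubate 48 h, interpolate endpoints linearly. The concentration for 50% growth inhibition is given as GI50.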 The source made the active and inactive calls. Rule as the data show it: active = GI50 up to about 1.1 µM and inactive = higher. Some results are limits rather than exact numbers.

Regarding `CCOc1ccc(/N=N/c2c(-c3ccccc3)nn(C(=O)CC(=O)Nc3ccccc3Cl)c2-c2ccccc2)cc1`, the GI50 with RXF 393 is 34.2 µM (inactive); in the test with NCI-H226 it was 65.9 µM (inactive); in the test with DMS-273, 18.3 µM (inactive); in the test with Malme-3M it was > 100 µM (inactive); in the test with IGROV-1, > 100 µM (inactive); in the test with SK-MEL-5, 44.6 µM (inactive). Besides, the GI50 in the test on COLO 205 was 64.9 µM (inactive); with SNB-75, 21.2 µM (inactive); with RPMI-8226, 37.4 µM (inactive); in the test with SK-MEL-2 it was > 100 µM (inactive); in the test with LOX IMVI it was 42.2 µM (inactive); in the test on A549 it was 67.3 µM (inactive). For the same compound, the GI50 is 27.7 µM (inactive) with SK-MEL-28 and 68.5 µM (inactive) with SF-295.

As for `N=C1N(c2ccccc2)C(=O)C23CCCC2C13N1CCOCC1` (configuration not stated), the GI50 with RXF 393, in the test with NCI-H226, with DMS-273, in the test on Malme-3M, in the test on IGROV-1 and in the test with SK-MEL-5 was > 100 µM (inactive) each time. Further, the GI50 with COLO 205, in the test on SNB-75, in the test on RPMI-8226, in the test on SK-MEL-2, in the test with A549 and in the test with SK-MEL-28 was > 100 µM (inactive) in each case. For the same compound, the GI50 with SF-295 is > 100 µM (inactive).

On to `C/C=C/COC(=O)CO[N+](=O)[O-]`, for which the GI50 in the test on RXF 393, with NCI-H226, in the test with DMS-273, in the test on Malme-3M, in the test on IGROV-1 and in the test with COLO 205 was > 100 µM (inactive) throughout. The GI50 in the test on SNB-75, in the test on RPMI-8226, with SK-MEL-2, in the test on LOX IMVI, in the test on A549 and in the test on SF-295 was > 100 µM (inactive) each time.

Turning to `CCOC(=O)C1C(=O)C(C(=O)OCC)C(c2ccccc2)N(C)C1c1ccccc1` (configuration not stated), the GI50 in the test on RXF 393 was > 100 µM (inactive); with NCI-H226, > 100 µM (inactive); with DMS-273, > 100 µM (inactive); in the test with Malme-3M, > 100 µM (inactive); with IGROV-1, > 100 µM (inactive); with SK-MEL-5 it was 66.4 µM (inactive). Also, the GI50 with COLO 205 is > 100 µM (inactive); in the test on SNB-75, > 100 µM (inactive); in the test with A498 it was > 100 µM (inactive); in the test on SK-MEL-2, > 100 µM (inactive); with LOX IMVI, 33.9 µM (inactive); with A549, > 100 µM (inactive). Also, the GI50 with SK-MEL-28 and in the test with SF-295 was > 100 µM (inactive) each time.

Consider `O=CC1=CCCN(CCc2c[nH]c3ccccc23)C1`, for which the GI50 with RXF 393 is 30.5 µM (inactive); in the test on NCI-H226, 46.3 µM (inactive); in the test on DMS-273, 46.2 µM (inactive); in the test with Malme-3M, 64.7 µM (inactive); in the test with IGROV-1 it was 86.5 µM (inactive); in the test on SK-MEL-5 it was 62.8 µM (inactive). Besides, the GI50 with COLO 205 was 77.6 µM (inactive); in the test with RPMI-8226, 37.2 µM (inactive); with SK-MEL-2, 63.5 µM (inactive); in the test with LOX IMVI it was 6.47 µM (inactive); in the test with A549, 186 µM (inactive); with SK-MEL-28, 11.9 µM (inactive). For the same compound, in the test on SF-295, the GI50 is 57.3 µM (inactive).

`CN(C)c1ccc(/C=C(\NC(=O)c2ccccc2)c2nc3ccccc3c(=O)o2)cc1`: the GI50 with RXF 393, with NCI-H226, in the test on MDA-MB-231, with T47D, in the test with Malme-3M and with IGROV-1 was > 100 µM (inactive) throughout. For the same compound, the GI50 in the test with SK-MEL-5 was 91.4 µM (inactive); in the test on COLO 205, > 100 µM (inactive); in the test with MDA-N, 83.4 µM (inactive); in the test with SNB-75, > 100 µM (inactive); with A498, > 100 µM (inactive); in the test on PC-3, > 100 µM (inactive). Moreover, the GI50 with RPMI-8226, in the test on SK-MEL-2, in the test on BT-549, in the test on LOX IMVI, in the test with A549 and with SK-MEL-28 was > 100 µM (inactive) each time. Moreover, the GI50 in the test on SF-295 was > 100 µM (inactive).

As for `COC(C)(C)OCCN1CCN(CCN2C3=C(C=C(C(C)=O)C3)Sc3ccccc32)CC1`, the GI50 is 17.9 µM (inactive) in the test on RXF 393; 22.9 µM (inactive) with NCI-H226; 22.3 µM (inactive) with MDA-MB-231; 23.9 µM (inactive) in the test with T47D; 21.3 µM (inactive) with Malme-3M; 20 µM (inactive) in the test on IGROV-1. Besides, the GI50 in the test with SK-MEL-5 was 17.5 µM (inactive); in the test on COLO 205, 17.6 µM (inactive); in the test on MDA-N, 19 µM (inactive); in the test with SNB-75, 30.5 µM (inactive); with A498 it was 17.6 µM (inactive); with PC-3 it was 24.8 µM (inactive). Also, the GI50 is 14.3 µM (inactive) in the test on RPMI-8226; 20.2 µM (inactive) with SK-MEL-2; 21.6 µM (inactive) in the test with BT-549; 20.7 µM (inactive) with LOX IMVI; 32.6 µM (inactive) with A549; 16.4 µM (inactive) in the test with SK-MEL-28. Moreover, the GI50 with SF-295 was 19.5 µM (inactive).

On to `CCCCC(/C=N/NC(=N)N)CC.Cc1cc(O)c(C(C)C)cc1S(=O)(=O)O`, for which the GI50 is 24.9 µM (inactive) with RXF 393; 18.2 µM (inactive) in the test with NCI-H226; 38 µM (inactive) with DMS-273; 43.9 µM (inactive) with Malme-3M; 92.9 µM (inactive) in the test on IGROV-1; 18.2 µM (inactive) in the test with COLO 205. The GI50 is 54 µM (inactive) in the test with SNB-75; 38.8 µM (inactive) in the test with RPMI-8226; 57.1 µM (inactive) in the test on LOX IMVI; 65.8 µM (inactive) with A549; 40.6 µM (inactive) in the test on SK-MEL-28; 42.5 µM (inactive) with SF-295.

Take `COC1C(O)=C2C(=O)OC(C)(O)/C=C/C=C\C=C/C=C/C(c3ccccc3)NC(=O)/C=C/C=C/C=C/C=C/C2(C)C1O` (configuration not stated): the GI50 in the test with RXF 393 was 0.0184 µM (active); with NCI-H226, 0.00646 µM (active); in the test with MDA-MB-231, 0.0101 µM (active); in the test on T47D it was 0.0152 µM (active); with Malme-3M, 0.0101 µM (active); with IGROV-1 it was 0.0165 µM (active). Further, the GI50 with SK-MEL-5 was 0.0356 µM (active); in the test on COLO 205 it was 0.00124 µM (active); in the test on MDA-N, 0.0275 µM (active); with SNB-75, 0.028 µM (active); in the test with A498, 0.0137 µM (active); in the test on PC-3, 0.00339 µM (active). The GI50 in the test on RPMI-8226 was 0.0111 µM (active); in the test on SK-MEL-2 it was 0.0361 µM (active); with BT-549 it was 0.0128 µM (active); in the test on LOX IMVI it was 0.00838 µM (active); in the test on A549, 0.00105 µM (active); with SK-MEL-28, 0.0461 µM (active). The GI50 in the test with SF-295 was 0.0111 µM (active).

Turning to `COc1ccc2cc(CNCCOCCOCCNCc3ccc4cc(OC)ccc4c3)ccc2c1`, the GI50 with RXF 393 was 1.53 µM (inactive); in the test with NCI-H226, 1.55 µM (inactive); with MDA-MB-231, 1 µM (active); in the test with T47D, 1.06 µM (active); in the test with Malme-3M it was 1.43 µM (inactive); with IGROV-1, 1.63 µM (inactive). In addition, the GI50 with SK-MEL-5 is 0.675 µM (active); in the test on COLO 205 it was 0.162 µM (active); in the test with MDA-N, 0.889 µM (active); in the test on SNB-75, 1.38 µM (inactive); in the test on A498, 1.68 µM (inactive); with PC-3, 1.54 µM (inactive). For the same compound, the GI50 in the test with RPMI-8226 is 0.209 µM (active); in the test on SK-MEL-2, 1.53 µM (inactive); in the test with BT-549, 1.89 µM (inactive); in the test with LOX IMVI, 0.467 µM (active); with A549 it was 1.58 µM (inactive); with SK-MEL-28 it was 0.869 µM (active). Besides, the GI50 in the test on SF-295 is 1.17 µM (inactive).

On to `O=C(O)C(Cc1c[nH]c2ccccc12)C(=O)NO` (configuration not stated), for which the GI50 in the test on RXF 393, in the test with NCI-H226, in the test on MDA-MB-231, in the test with T47D, in the test with Malme-3M and with IGROV-1 was > 100 µM (inactive) in each case. Further, the GI50 is > 100 µM (inactive) in the test with SK-MEL-5; > 100 µM (inactive) in the test on COLO 205; > 100 µM (inactive) in the test with MDA-N; > 100 µM (inactive) with SNB-75; > 100 µM (inactive) in the test on A498; 64.1 µM (inactive) with PC-3. In addition, the GI50 in the test with RPMI-8226, in the test on SK-MEL-2, with BT-549, with LOX IMVI, in the test with A549 and in the test on SK-MEL-28 was > 100 µM (inactive) each time. The GI50 with SF-295 is > 100 µM (inactive).

As to `CCCCCC(=O)Nc1[nH]cnc1C(N)=O`, the GI50 in the test on RXF 393, in the test with NCI-H226, in the test with MDA-MB-231, in the test on T47D, with Malme-3M and with IGROV-1 was > 100 µM (inactive) each time. For the same compound, the GI50 with SK-MEL-5, in the test with COLO 205, in the test with MDA-N, in the test on SNB-75, in the test on A498 and in the test on PC-3 was > 100 µM (inactive) throughout. Further, the GI50 in the test with RPMI-8226, with SK-MEL-2, in the test on BT-549, in the test with LOX IMVI, with A549 and in the test with SK-MEL-28 was > 100 µM (inactive) in each case. The GI50 with SF-295 is > 100 µM (inactive).

These data come from ChEMBL document CHEMBL1201862, “PubChem BioAssay data set” (2004).
